Results on 18 compounds are retold here after patent publication US20160272626A1, “PYRAZINE DERIVATIVES” (HOFFMANN-LA ROCHE INC., priority 2012, published 2016).

One assay addresses T1, rat TAAR1 (Rattus norvegicus, UniProt Q923Y9).
T1 construct: expressed in transfected cells; membrane preparation
The assay can be described thus: Radioligand binding assay on rat TAAR1. Conditions: for Ki: rat TAAR1, HEK-293 membranes, second value of cell mouse/rat. The protocol: (§1) For the construction of expression plasmids the coding sequences of human, rat and mouse TAAR 1 were amplified from genomic DNA essentially as described by Lindemann et al.. The Expand High Fidelity PCR System (Roche Diagnostics) was used with 1.5 mM Mg^2+ and purified PCR products were cloned into pCR2.1-TOPO cloning vector (Invitrogen) following the instructions of the manufacturer. PCR products were subcloned into the pIRESneo2 vector (BD Clontech, Palo Alto, Calif.), and expression vectors were sequence verified before introduction in cell lines.
(§2) HEK293 cells (ATCC # CRL-1573) were cultured essentially as described by Lindemann et al. (2005). For the generation of stably transfected cell lines HEK293 cells were transfected with the pIRESneo2 expression plasmids containing the TAAR coding sequences (described above) with Lipofectamine 2000 (Invitrogen) according to the instructions of the manufacturer, and 24 hrs post transfection the culture medium was supplemented with 1 mg/ml G418 (Sigma, Buchs, Switzerland). After a culture period of about 10 d clones were isolated, expanded and tested for responsiveness to trace amines (all compounds purchased from Sigma) with the cAMP Biotrak Enzyme immunoassay (EIA) System (Amersham) following the non-acetylation EIA procedure provided by the manufacturer.
Radioligand Binding Assay on Rat TAAR1
(§3) Membrane Preparation and Radioligand Binding.
HEK-293 cells stably expressing rat TAAR1 were maintained at 37° C. and 5% CO2 in DMEM high glucose medium, containing fetal calf serum (10%, heat inactivated for 30 min at 56° C.), penicillin/streptomycin (1%), and 375 μg/ml geneticin (Gibco). Cells were released from culture flasks using trypsin/EDTA, harvested, washed twice with ice-cold PBS (without Ca^2+ and Mg^2+), pelleted at 1,000 rpm for 5 min at 4° C., frozen and stored at −80° C. Frozen pellets were suspended in 20 ml HEPES-NaOH (20 mM, pH 7.4) containing 10 mM EDTA and homogenized with a Polytron (PT 6000, Kinematica) at 14,000 rpm for 20 s. The homogenate was centrifuged at 48,000×g for 30 min at 4° C. Subsequently, the supernatant was removed and discarded, and the pellet resuspended in 20 ml HEPES-NaOH (20 mM, pH 7.4) containing 0.1 mM EDTA using the Polytron (20 s at 14,000 rpm). This procedure was repeated and the final pellet resuspended in HEPES-NaOH containing 0.1 mM EDTA and homogenized using the Polytron. Typically, aliquots of 2 ml membrane portions were stored at −80° C. With each new membrane batch the dissociation constant (Kd) was determined via a saturation curve. […] Nonspecific binding was defined as the amount of ^3[H]—(S)-4-[(ethyl-phenyl-amino)-methyl]-4,5-dihydro-oxazol-2-ylamine bound in the presence of 10 μM unlabeled ligand. All compounds were tested at a broad range of concentrations (10 pM to 10 μM) in duplicates. The test compounds (20 μl/well) were transferred into a 96 deep well plate (TreffLab), and 180 μl of HEPES-NaOH (20 mM, pH 7.4) containing MgCl2 (10 mM) and CaCl2 (2 mM) (binding buffer), 300 μl of the radioligand ^3[H]—(S)-4-[(ethyl-phenyl-amino)-methyl]-4,5-dihydro-oxazol-2-ylamine at a concentration of 3.3×Kd in nM and 500 μl of the membranes (resuspended at 50 μg protein per ml) added. The 96 deep well plates were incubated for 1 hr at 4° C. Incubations were terminated by rapid filtration through Unifilter-96 plates (Packard Instrument Company) and glass filters GF/C (Perkin Elmer) presoaked for 1 hr in polyethylenimine (0.3%) and washed 3 times with 1 ml of cold binding buffer. After addition of 45 μl of Microscint 40 (PerkinElmer) the Unifilter-96 plate was sealed and after 1 hr the […] counted using a TopCount Microplate Scintillation Counter (Packard Instrument Company).

For another assay, the target named is T2, mouse TAAR1 (Mus musculus, UniProt Q923Y8).
T2 construct: expressed in transfected cells; membrane preparation
T2 sequence (Q923Y8 whole entry): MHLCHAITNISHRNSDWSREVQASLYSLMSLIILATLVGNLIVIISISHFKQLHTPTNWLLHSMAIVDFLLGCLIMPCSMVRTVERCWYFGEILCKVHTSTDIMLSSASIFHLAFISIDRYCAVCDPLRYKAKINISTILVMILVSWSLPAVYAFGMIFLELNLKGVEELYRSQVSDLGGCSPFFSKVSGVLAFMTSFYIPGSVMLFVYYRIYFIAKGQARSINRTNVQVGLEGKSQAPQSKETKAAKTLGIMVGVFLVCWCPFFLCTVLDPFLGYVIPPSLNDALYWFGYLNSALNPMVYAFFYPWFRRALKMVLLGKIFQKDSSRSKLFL
The experiment in a line: Radioligand binding assay on mouse TAAR1. As to conditions: for Ki: mouse TAAR1, HEK-293 membranes, first value of cell mouse/rat. Here is the method: as §1, §2
Radioligand Binding Assay on Mouse TAAR1
as §3
HEK-293 cells stably expressing mouse TAAR1 were maintained at 37° C. and 5% CO2 in DMEM high glucose medium, containing fetal calf serum (10%, heat inactivated for 30 min at 56° C.), penicillin/streptomycin (1%), and 375 μg/ml geneticin (Gibco). Cells were released from culture flasks using trypsin/EDTA, harvested, washed twice with ice-cold PBS (without Ca^2+ and Mg^2+), pelleted at 1,000 rpm for 5 min at 4° C., frozen and stored at −80° C. Frozen pellets were suspended in 20 ml HEPES-NaOH (20 mM, pH 7.4) containing 10 mM EDTA and homogenized with a Polytron (PT 6000, Kinematica) at 14,000 rpm for 20 s. The homogenate was centrifuged at 48,000×g for 30 min at 4° C. Subsequently, the supernatant was removed and discarded, and the pellet resuspended in 20 ml HEPES-NaOH (20 mM, pH 7.4) containing 0.1 mM EDTA using the Polytron (20 s at 14,000 rpm). This procedure was repeated and the final pellet resuspended in HEPES-NaOH containing 0.1 mM EDTA and homogenized using the Polytron. Typically, aliquots of 2 ml membrane portions were stored at −80° C. With each new membrane batch the dissociation constant (Kd) was determined via a saturation curve. The TAAR1 radioligand ^3[H]—(S)-4-[(ethyl-phenyl-amino)-methyl]-4,5-dihydro-oxazol-2-ylamine (described in WO 2008/098857) was used at a concentration equal to the calculated Kd value, that was usually around 0.7 nM, resulting in the binding of approximately 0.5% of the radioligand and a specific binding representing approximately 70% of the total binding. Nonspecific binding was defined as the amount of ^3[H]—(S)-4-[(ethyl-phenyl-amino)-methyl]-4,5-dihydro-oxazol-2-ylamine bound in the presence of 10 μM unlabeled ligand. All compounds were tested at a broad range of concentrations (10 pM to 10 μM) in duplicates. The test compounds (20 μl/well) were transferred into a 96 deep well plate (TreffLab), and 180 μl of HEPES-NaOH (20 mM, pH 7.4) containing MgCl2 (10 mM) and CaCl2 (2 mM) (binding buffer), 300 μl of the radioligand ^3[H]—(S)-4-[(ethyl-phenyl-amino)-methyl]-4,5-dihydro-oxazol-2-ylamine at a concentration of 3.3×Kd in nM and 500 μl of the membranes (resuspended at 60 μg protein per ml) added. The 96 deep well plates were incubated for 1 hr at 4° C. Incubations were terminated by rapid filtration through Unifilter-96 plates (Packard Instrument Company) and glass filters GF/C (Perkin Elmer) presoaked for 1 hr in polyethylenimine (0.3%) and washed 3 times with 1 ml of cold binding buffer. […]

The structures appear in SMILES notation. Counter-ions that a name gives are not always drawn.

T1 sequence (Q923Y9 whole entry): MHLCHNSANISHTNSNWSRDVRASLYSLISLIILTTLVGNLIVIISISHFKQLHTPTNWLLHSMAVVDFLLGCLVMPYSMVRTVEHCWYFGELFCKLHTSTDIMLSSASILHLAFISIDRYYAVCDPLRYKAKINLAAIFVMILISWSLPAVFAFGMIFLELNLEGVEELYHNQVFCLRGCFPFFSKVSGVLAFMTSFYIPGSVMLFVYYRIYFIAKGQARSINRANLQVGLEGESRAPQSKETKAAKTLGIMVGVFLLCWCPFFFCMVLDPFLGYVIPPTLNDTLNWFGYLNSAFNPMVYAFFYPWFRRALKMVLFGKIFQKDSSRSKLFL

By Ki is commonly meant the equilibrium dissociation constant of an inhibitor or competing ligand from its target. Low values mean higher affinity, high ones lower affinity. Turning to `O=C(Nc1ccc([C@H]2CNCCO2)cc1F)c1cncc(OCC(F)(F)F)n1` [Example 25, (S)—N-(2-Fluoro-4-(morpholin-2-yl)phenyl)-6-(2,2,2-trifluoroethoxy)pyrazine-2-carboxamide], the Ki on rat TAAR1 was 0.0122 µM; on mouse TAAR1, 0.044 µM.

On to `CC(C)c1cncc(C(=O)Nc2ccc([C@H]3CNCCO3)cc2F)n1` [Example 22, 6-Isopropyl-pyrazine-2-carboxylic acid ((S)-2-fluoro-4-morpholin-2-yl-phenyl)-amide], for which the Ki on rat TAAR1 was found to be 0.391 µM; on mouse TAAR1 it was 0.0522 µM.

As to `COc1cncc(C(=O)Nc2ccc([C@@H]3CNCCO3)c(F)c2)n1` [Example 7, (R)—N-(3-Fluoro-4-(morpholin-2-yl)phenyl)-6-methoxypyrazine-2-carboxamide hydrochloride], the Ki on rat TAAR1 was 0.068 µM; on mouse TAAR1, 0.147 µM.

On to `O=C(Nc1ccc([C@@H]2CNCCO2)cc1F)c1cnc(OCC(F)(F)F)cn1` [Example 27, (R)—N-(2-Fluoro-4-(morpholin-2-yl)phenyl)-5-(2,2,2-trifluoroethoxy)pyrazine-2-carboxamide], for which the Ki on rat TAAR1 is 0.0183 µM; on mouse TAAR1, 0.0059 µM.

Regarding `O=C(Nc1ccc([C@H]2CNCCO2)c(F)c1)c1cnc2ccccc2n1` [Example 14, (S)—N-(3-Fluoro-4-(morpholin-2-yl)phenyl)quinoxaline-2-carboxamide hydrochloride], the Ki on rat TAAR1 came to 0.0222 µM; on mouse TAAR1, 0.0028 µM.

For `O=C(Nc1ccc([C@H]2CNCCO2)cc1F)c1cnc(C2CC2)cn1` [Example 19, (S)-5-Cyclopropyl-N-(2-fluoro-4-(morpholin-2-yl)phenyl)pyrazine-2-carboxamide], the Ki is 0.235 µM on rat TAAR1 and 0.0061 µM on mouse TAAR1.

Take `O=C(Nc1ccc([C@H]2CNCCO2)c(F)c1)c1cnc(N2CC(F)(F)C2)cn1` [Example 16, 5-(3,3-Difluoro-azetidin-1-yl)-pyrazine-2-carboxylic acid ((S)-3-fluoro-4-morpholin-2-yl-phenyl)-amide hydrochloride]: the Ki is 0.191 µM on rat TAAR1 and 0.0193 µM on mouse TAAR1.

With `CCOc1cnc(C(=O)Nc2ccc([C@H]3CNCCO3)c(F)c2)cn1` [Example 13, (S)-5-Ethoxy-N-(3-fluoro-4-(morpholin-2-yl)phenyl)pyrazine-2-carboxamide hydrochloride], the Ki on rat TAAR1 was found to be 0.11 µM; on mouse TAAR1, 0.0041 µM.

With `O=C(Nc1ccc([C@@H]2CNCCO2)c(F)c1)c1cncc(OCC(F)(F)F)n1` [Example 30, (R)—N-(3-Fluoro-4-(morpholin-2-yl)phenyl)-6-(2,2,2-trifluoroethoxy)pyrazine-2-carboxamide], the Ki worked out at 0.0035 µM at rat TAAR1 and 0.0292 µM at mouse TAAR1.

The term Kd denotes the constant that tells how readily two partners part at equilibrium. Turning to `CCN(C[C@H]1COC(N)=N1)c1ccccc1` [^3[H]—(S)-4-[(ethyl-phenyl-amino)-methyl]-4,5-dihydro-oxazol-2-ylamine, reference compound], the Kd at rat TAAR1 (rat TAAR1 membranes, saturation curve, usual value, read-out: dissociation constant (Kd) of the radioligand) is roughly 2.3 nM; at mouse TAAR1 (mouse TAAR1 membranes, saturation curve, usual value, read-out: dissociation constant (Kd) of the radioligand), roughly 0.7 nM.

For `O=C(Nc1ccc([C@@H]2CNCCO2)c(F)c1)c1cnc(C2CC2)cn1` [Example 17, 5-Cyclopropyl-pyrazine-2-carboxylic acid ((R)-3-fluoro-4-morpholin-2-yl-phenyl)-amide hydrochloride], the values for the Ki at rat TAAR1 and on mouse TAAR1 were 0.0076 µM and 0.0072 µM, respectively.

On to `Cc1ccc2ncc(C(=O)Nc3ccc([C@H]4CNCCO4)c(F)c3)nc2c1` [Example 15, 7-Methyl-quinoxaline-2-carboxylic acid ((S)-3-fluoro-4-morpholin-2-yl-phenyl)-amide hydrochloride], for which the Ki on rat TAAR1 was found to be 0.0131 µM; on mouse TAAR1, 0.0068 µM.

`N#Cc1cc(NC(=O)c2cnc(C(F)(F)F)cn2)ccc1[C@@H]1CNCCO1` [Example 2, (R)—N-(3-Cyano-4-(morpholin-2-yl)phenyl)-5-(trifluoromethyl)pyrazine-2-carboxamide hydrochloride]: the results for the Ki at rat TAAR1 and at mouse TAAR1 were 0.0186 µM and 0.0184 µM, respectively.

For the compound `O=C(Nc1ccc([C@@H]2CNCCO2)cc1F)c1cnc(C2CC2)cn1` [Example 20, (R)-5-Cyclopropyl-N-(2-fluoro-4-(morpholin-2-yl)phenyl)pyrazine-2-carboxamide], the Ki amounted to 0.0708 µM on rat TAAR1 and 0.0099 µM at mouse TAAR1.

For the compound `N#Cc1cc(NC(=O)c2cnc(C(F)(F)F)cn2)ccc1[C@H]1CNCCO1` [Example 3, (S)—N-(3-Cyano-4-(morpholin-2-yl)phenyl)-5-(trifluoromethyl)pyrazine-2-carboxamide hydrochloride], the Ki came out at 1.09 µM on rat TAAR1 and 0.0204 µM on mouse TAAR1.

As for `O=C(Nc1ccc([C@H]2CNCCO2)c(F)c1)c1cncc(OCC(F)(F)F)n1` [Example 26, (S)—N-(3-Fluoro-4-(morpholin-2-yl)phenyl)-6-(2,2,2-trifluoroethoxy)pyrazine-2-carboxamide], the Ki on rat TAAR1 was determined as 0.0032 µM; at mouse TAAR1, 0.0167 µM.

For `CC(C)c1cncc(C(=O)Nc2ccc([C@H]3CNCCO3)c(F)c2)n1` [Example 21, 6-Isopropyl-pyrazine-2-carboxylic acid ((S)-3-fluoro-4-morpholin-2-yl-phenyl)-amide], the Ki is 0.0849 µM on rat TAAR1 and 0.0181 µM at mouse TAAR1.

With `COc1cncc(C(=O)Nc2ccc([C@H]3CNCCO3)c(F)c2)n1` [Example 9, (S)—N-(3-Fluoro-4-(morpholin-2-yl)phenyl)-6-methoxypyrazine-2-carboxamide hydrochloride], the Ki is 0.247 µM at rat TAAR1 and 0.0314 µM at mouse TAAR1.
